Experiments:
LPA1 [1] = target: T1, LPA1 (Homo sapiens, UniProt Q92633); assay: cell-based; settings: maximum blockade of activation induced by 10 μM LPA (18:1) at 10 μM compound; N.E. = no effect at 10 μM
Protocol: (§1) Cells stably expressing the corresponding LPA1–3 receptor were grown as described previously.[18] Changes in intracellular calcium levels were measured by using the fluorescent calcium sensitive dye Fluo-4 NW (Invitrogen). RH7777 cells or B103 cells were plated on poly-D-lysine or collagen coated, respectively, black-wall clear-bottom 96-well plates (Corning) at a density of 50 000 cells/well and cultured overnight. The culture medium was then replaced with 100 μL of Fluo-4 NW dye loading solution containing 2.5 μM of probenecid and incubated for 30 min at 37 °C followed by an additional 30 min at rt. […] Fluorescence changes were registered in a FluoStar Optima instrument (BMG Labtech) at 525 nm using an excitation wavelength of 494 nm. […] The data presented are from two to four independent experiments carried out in triplicate or quadruplicate. Dose–response curves were generated and IC50 values calculated by nonlinear regression analysis using Prism software version 5 (GraphPad Software Inc., San Diego, CA, USA).

LPA2 [2] = target: T2, LPA2 (Homo sapiens, UniProt Q9HBW0); assay: Ca2+ mobilization assay, antagonist activity at LPA2; type: cell-based; parameters: Emax: dose or concentration left out as unconfirmed; settings: for IC50: antagonism of 10 μM LPA, mean ± s.e.m.
T2 construct: expressed in transfected cells
T2 sequence (Q9HBW0 whole entry, species assumed): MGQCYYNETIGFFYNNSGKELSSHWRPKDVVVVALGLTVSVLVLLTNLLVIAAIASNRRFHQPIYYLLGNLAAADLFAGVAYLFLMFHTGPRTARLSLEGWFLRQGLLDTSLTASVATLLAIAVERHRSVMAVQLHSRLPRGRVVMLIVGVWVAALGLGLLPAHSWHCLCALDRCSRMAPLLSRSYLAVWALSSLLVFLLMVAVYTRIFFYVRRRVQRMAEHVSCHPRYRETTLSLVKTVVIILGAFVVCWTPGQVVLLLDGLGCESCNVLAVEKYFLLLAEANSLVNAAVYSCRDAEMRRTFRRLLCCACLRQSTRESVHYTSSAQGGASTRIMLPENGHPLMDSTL
Protocol: as §1
Figure S2. Dose response curves for compounds 13, 44, 53, 54, and 55. B103 cells stably expressing LPA2 receptor were incubated with different concentrations of the compound under study and […]
Curves were generated with PRISM software version 5 (GraphPad Software Inc, San Diego, CA, USA) using nonlinear regression analysis. Each data point corresponds to the mean±SEM of two to four independent experiments carried out in triplicate or quadruplicate.

LPA3 [3] = target: T3, LPA3 (Homo sapiens, UniProt Q9UBY5); assay: cell-based; settings: for Emax (%) LPA3: maximum blockade of activation induced by 10 μM LPA (18:1) at 10 μM compound, N.E. = no effect at 10 μM
T3 sequence (Q9UBY5 1-353): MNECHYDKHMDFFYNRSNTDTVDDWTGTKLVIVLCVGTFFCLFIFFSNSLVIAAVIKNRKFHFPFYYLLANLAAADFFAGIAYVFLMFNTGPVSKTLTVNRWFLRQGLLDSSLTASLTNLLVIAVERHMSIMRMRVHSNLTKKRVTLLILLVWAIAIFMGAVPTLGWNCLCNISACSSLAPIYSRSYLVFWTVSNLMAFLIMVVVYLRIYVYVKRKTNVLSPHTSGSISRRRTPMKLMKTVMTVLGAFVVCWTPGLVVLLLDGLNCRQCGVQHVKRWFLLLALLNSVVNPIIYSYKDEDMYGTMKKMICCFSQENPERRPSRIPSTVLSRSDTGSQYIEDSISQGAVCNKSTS
Protocol: as §1

LPA1 [4] = target: T1, LPA1; parameters: expressed in transfected cells; settings: cited from earlier work
LPA3 [5] = target: T3, LPA3; parameters: expressed in transfected cells; settings: cited from earlier work
LPA2 [6] = target: T2, LPA2; assay: Ca2+ mobilization assay, agonist activity at LPA2; type: cell-based; settings: 10 μM compound
Protocol: The agonist activity at LPA2 receptors was determined at 10 μM concentration for all final compounds as previously described.[18]
Figure S1. Representative snapshots showing the lack of significant agonist activity of selected compounds. (A) 1; (B) 13; (C) 54; and (D) Ki16425. (E) Graphs show the agonist activity induced […]
stably expressing LPA2 receptor were plated on collagen-coated black-wall clear-bottom 96-well plates (Corning) at a density of 50000 cells/well and cultured overnight. The culture medium was then replaced with Fluo-4 NW dye loading solution containing 2.5 µM of probenecid and incubated […]
for 30 minutes at 37 °C followed by an additional 30 minutes at rt. Fluorescence changes were registered in a FluoStar Optima instrument (BMG Labtech) at 525 nm using an excitation wavelength of 494 nm. Each well was monitored for 240 s. 20 µL of the test compound from a 6x stock solution in assay buffer were added after 120 s of starting the measurement. Ca2+ transient increase was quantified by calculating the difference between maximum and baseline values for each […]
Graphs shown are representative of two to three independent experiments.

T1 sequence (Q92633 whole entry, species assumed): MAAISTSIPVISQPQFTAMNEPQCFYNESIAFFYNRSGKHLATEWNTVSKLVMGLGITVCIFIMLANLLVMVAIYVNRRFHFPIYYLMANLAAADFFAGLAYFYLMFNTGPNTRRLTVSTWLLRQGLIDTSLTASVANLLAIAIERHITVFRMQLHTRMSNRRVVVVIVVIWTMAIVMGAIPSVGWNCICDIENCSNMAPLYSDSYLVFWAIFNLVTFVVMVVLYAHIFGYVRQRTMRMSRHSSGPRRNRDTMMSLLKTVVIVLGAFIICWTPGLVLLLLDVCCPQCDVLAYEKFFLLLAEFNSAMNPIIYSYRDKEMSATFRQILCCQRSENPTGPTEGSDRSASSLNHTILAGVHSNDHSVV

Row | Molecule | Emax (%) LPA1 (LPA1 [1]) | Emax at 10 µM (LPA2 [2]) [%] | Emax (%) LPA3 (LPA3 [3]) | melting point | also measured
1 | O=C(O)COc1ccc(-c2n[nH]cc2Oc2ccc(Cl)cc2Cl)c(O)c1 [Compound 48, {4-[4-(2,4-Dichlorophenoxy)-1H-pyrazol-3-yl]-3-hydroxyphenoxy}acetic Acid] | N.E. | 35 ± 8 | N.E. |  | 
2 | {4-[4-(2,4-Dichlorophenoxy)-3-methyl-1,2-oxazol-3-yl]-3-hydroxyphenoxy}acetic Acid [Compound 49] | N.E. |  | 71 ± 4% |  | Emax (%) LPA2 (LPA2 [2]; maximum blockade of activation induced by 10 μM LPA (18:1) at 10 μM compound): 58 ± 3%
3 | COC(=O)COc1ccc(-c2n[nH]c(C)c2Oc2ccc(Cl)cc2Cl)c(O)c1 [Compound 44, Methyl {4-[4-(2,4-dichlorophenoxy)-5-methyl-1H-pyrazol-3-yl]-3-hydroxyphenoxy} Acetate] | N.E. | 74 ± 7 | N.E. | > 210 °C (dec.) | IC50 (LPA2 [2]): 11.6 µM
4 | Cc1[nH]nc(-c2ccc(OCC(=O)O)cc2O)c1Oc1ccccc1 [Compound 3, [3-Hydroxy-4-(5-methyl-4-phenoxy-1H-pyrazol-3-yl)phenoxy]acetic Acid] | N.E. | 20 ± 7 | N.E. | > 180 °C (dec.) | 
5 | Cc1[nH]nc(-c2ccc(OCC(=O)O)cc2O)c1Oc1cccc(Cl)c1 [Compound 10, {4-[4-(3-Chlorophenoxy)-5-methyl-1H-pyrazol-3-yl]-3-hydroxyphenoxy}acetic Acid] | N.E. | 45 ± 8 | N.E. | > 240 °C (dec.) | 
6 | Cc1[nH]nc(-c2ccc(OCCCCC(=O)O)cc2O)c1Oc1ccc(Cl)cc1Cl [Compound 38, 5-{4-[4-(2,4-Dichlorophenoxy)-5-methyl-1H-pyrazol-3-yl]-3-hydroxyphenoxy}pentanoic Acid] | N.E. | 21 ± 8 | N.E. |  | 
7 | Cc1csc2c(N[C@@H](C)CN3CCN(S(=O)(=O)c4ccc(Cl)c(Cl)c4)CC3)ncnc12 [Compound C35] |  |  |  |  | IC50 (LPA1 [4]): > 50 µM; IC50 (LPA3 [5]): > 50 µM
8 | Cc1[nH]nc(-c2ccc(OCCCC(=O)O)cc2O)c1Oc1ccc(Cl)cc1Cl [Compound 37, 4-{4-[4-(2,4-Dichlorophenoxy)-5-methyl-1H-pyrazol-3-yl]-3-hydroxyphenoxy}butanoic Acid] | N.E. | 43 ± 12 | N.E. |  | 
9 | COc1ccc(-c2n[nH]c(C)c2Oc2ccc(Cl)cc2Cl)c(O)c1 [Compound 43, 2-[4-(2,4-Dichlorophenoxy)-5-methyl-1H-pyrazol-3-yl]-5-methoxyphenol] | N.E. | 9 ± 5 | N.E. | 220 to 222 °C | 
10 | O=C(O)COc1ccc(-c2cc[nH]n2)c(O)c1 [Compound 2, [3-Hydroxy-4-(1H-pyrazol-3-yl)phenoxy]acetic Acid] |  | 7 ± 3 |  | 92 to 94 °C | 
11 | Cc1[nH]nc(-c2ccc(OCC(=O)O)cc2O)c1Oc1ccccc1Cl [Compound 1] | N.E.^c | 48 ± 9 | N.E. |  | agonist activity at LPA2 receptor (LPA2 [6]): lack and absence of significant agonist activity
12 | Cc1[nH]nc(-c2ccc(OCC(=O)O)cc2O)c1Oc1ccc(Cl)cc1 [Compound 11, {4-[4-(4-Chlorophenoxy)-5-methyl-1H-pyrazol-3-yl]-3-hydroxyphenoxy}acetic Acid] | N.E. | 60 ± 9 | N.E. | 121 to 123 °C | 
13 | Cc1c(Oc2ccc(Cl)cc2Cl)c(-c2ccc(OCC(=O)O)cc2O)nn1C [Compound 47, {4-[4-(2,4-Dichlorophenoxy)-1,5-dimethyl-1H-pyrazol-3-yl]-3-hydroxyphenoxy}acetic Acid] | N.E. | 73 ± 10 |  |  | Emax (LPA3 [3]; read-out: Emax (%) LPA3): 47 ± 7%
14 | Cc1[nH]nc(-c2ccc(OCC(N)=O)cc2O)c1Oc1ccc(Cl)cc1Cl [Compound 45, 2-{4-[4-(2,4-Dichlorophenoxy)-5-methyl-1H-pyrazol-3-yl]-3-hydroxyphenoxy}acetamide] | N.E. | 44 ± 7 | N.E. |  | 
15 | Cc1[nH]nc(-c2ccc(O)cc2O)c1Oc1ccc(Cl)cc1Cl [Compound 42, 4-[4-(2,4-Dichlorophenoxy)-5-methyl-1H-pyrazol-3-yl]benzene-1,3-diol] | N.E. | 16 ± 7 | N.E. | 206 to 208 °C | 
16 | Cc1[nH]nc(-c2ccc(OCc3nnn[nH]3)cc2O)c1Oc1ccc(F)cc1F [Compound 55] | N.E. |  | N.E. | > 210 °C (dec.) | Emax (LPA2 [2]): 77 ± 5%
17 | Cc1[nH]nc(-c2ccc(OCC(=O)O)cc2O)c1Oc1ccc(Cl)c(Cl)c1 [Compound 12, {4-[4-(3,4-Dichlorophenoxy)-5-methyl-1H-pyrazol-3-yl]-3-hydroxyphenoxy}acetic Acid] | N.E. | 58 ± 3 | N.E. | > 240 °C (dec.) | 
18 | Cc1[nH]nc(-c2ccc(OCCC(=O)O)cc2O)c1Oc1ccc(Cl)cc1Cl [Compound 36, 3-{4-[4-(2,4-Dichlorophenoxy)-5-methyl-1H-pyrazol-3-yl]-3-hydroxyphenoxy}propanoic Acid] | N.E. | 67 ± 7 | N.E. |  | 
19 | Cc1[nH]nc(-c2ccc(OCC(=O)O)cc2O)c1Oc1ccc(F)cc1F [Compound 53, {4-[4-(2,4-Difluorophenoxy)-5-methyl-1H-pyrazol-3-yl]-3-hydroxyphenoxy}acetic Acid] | N.E. |  | N.E. | > 210 °C (dec.) | Emax (LPA2 [2]): 65 ± 11%; IC50 (LPA2 [2]): 5.1 µM
20 | Cc1[nH]nc(-c2ccc(OCC(=O)O)cc2)c1Oc1ccc(Cl)cc1Cl [Compound 30, 4-(2,4-Dichlorophenoxy)-3-(4-carboxymethoxyphenyl)-5-methyl-1H-pyrazole] |  | 11 |  | 158 to 160 °C | 
21 | O=C(O)/C=C/C(=O)Nc1ccc(Oc2cccc(Oc3ccc(NC(=O)/C=C/C(=O)O)cc3)c2)cc1 [Compound H2L5186303] |  |  |  |  | IC50 (LPA1 [4]): 1.23 µM; IC50 (LPA3 [5]): 27.3 µM

From PMC9421655, “Novel Antagonist of the Type 2 Lysophosphatidic Acid Receptor (LPA2), UCM-14216, Ameliorates Spinal Cord Injury in Mice” (Journal of Medicinal Chemistry, 2022)
